Experimental data as given in ChEMBL document CHEMBL4251597, “Discovery and evolution of aloperine derivatives as a new family of HCV inhibitors with novel mechanism” (Eur J Med Chem, 2018).
Activity calls are given as the source filed them.

Key:
[1] = system: Hepatitis C virus; experiment: Antiviral activity against HCV infected in human GS4.3 cells assessed as inhibition of viral core protein levels at 0.15 uM treated with fresh media containing compound every 2 days measured after 6 days by Western blot method; type: functional, organism-based; conditions: Hepacivirus hominis
[2] = system: Hepatitis C virus; experiment: Antiviral activity against HCV infected in human GS4.3 cells assessed as inhibition of NS3/4A levels at 0.15 uM treated with fresh media containing compound every 2 days measured after 6 days by Western blot method; type: functional, organism-based; conditions: Hepacivirus hominis
[3] = system: Hepatitis C virus; experiment: Antiviral activity against HCV J6/JFH/JC-1 infected in human Huh7.5 cells assessed as inhibition of viral RNA replication after 72 hrs by qRT-PCR method; type: functional, organism-based, Hepacivirus hominis; conditions: J6/JFH/JC-1, Huh7.5, 72 h
[4] = system: Hepatitis C virus; experiment: Antiviral activity against HCV infected in human GS4.3 cells assessed as inhibition of viral core protein levels at 20 uM treated with fresh media containing compound every 2 days measured after 6 days by Western blot method; type: functional, organism-based; conditions: Hepacivirus hominis
[5] = system: Hepatitis C virus; experiment: Antiviral activity against HCV J6/JFH/JC-1 infected in human Huh7.5 cells assessed as inhibition of NS3/4A levels after 72 hrs by Western blot method; type: functional, organism-based; conditions: Hepacivirus hominis
[6] = system: Hepatitis C virus; experiment: Antiviral activity against HCV J6/JFH/JC-1 infected in human Huh7.5 cells assessed as inhibition of NS3/4A S282T mutant levels at 20 uM treated with fresh media containing compound every 2 days by Western blot method; type: functional, organism-based; conditions: Hepacivirus hominis
[7] = system: Hepatitis C virus; experiment: Antiviral activity against 22.5 to 90 IU/cell of HCV J6/JFH/JC-1 infected in human Huh7.5 cells assessed as inhibition of viral core protein levels at 20 uM treated with fresh media containing compound every 2 days by Western blot method; type: functional, organism-based; conditions: Hepacivirus hominis
[8] = system: Hepatitis C virus; experiment: Antiviral activity against HCV J6/JFH/JC-1 infected in human Huh7.5 cells assessed as inhibition of NS3/4A protein levels at 0.5 uM by Western blot method; type: functional, organism-based; conditions: Hepacivirus hominis, TDE = time-dependent effect
[9] = system: Hepatitis C virus; experiment: Antiviral activity against HCV J6/JFH/JC-1 infected in human Huh7.5 cells harboring […] S282T mutant assessed as inhibition of viral core protein levels at 20 uM treated with fresh media containing compound every 2 days by Western blot method; type: functional, organism-based; conditions: Hepacivirus hominis
[10] = system: Hepatitis C virus; experiment: Antiviral activity against HCV J6/JFH/JC-1 infected in human Huh7.5 cells assessed as inhibition of NS3/4A levels at 10 uM treated with fresh media containing compound every 2 days in presence of NS3/4A inhibitor simeprevir by Western blot method; type: functional, organism-based; conditions: Hepacivirus hominis
[11] = system: Hepatitis C virus; experiment: Antiviral activity against HCV infected in human GS4.3 cells assessed as inhibition of NS3/4A levels at 20 uM treated with fresh media containing compound every 2 days measured after 6 days by Western blot method; type: functional, organism-based; conditions: Hepacivirus hominis
[12] = system: Hepatitis C virus; experiment: Antiviral activity against HCV J6/JFH/JC-1 infected in human Huh7.5 cells assessed as inhibition of viral core protein levels after 72 hrs by Western blot method; type: functional, organism-based; conditions: Hepacivirus hominis
[13] = Cmax in mouse at 25 mg/kg, po after 0.25 to 6 hrs; type: ADME, organism-based; set-up: dose 25 mg/kg, route oral; conditions: in vivo
[14] = system: Hepatitis C virus; experiment: Antiviral activity against HCV J6/JFH/JC-1 infected in human Huh7.5 cells assessed as inhibition of NS3/4A A156T mutant levels at 20 uM treated with fresh media containing compound every 2 days by Western blot method; type: functional, organism-based; conditions: Hepacivirus hominis
[15] = MRT in mouse at 25 mg/kg, po after 0.25 to 6 hrs; type: ADME, organism-based; conditions: in vivo
[16] = Cytotoxicity against human Huh7.5 cells after 72 hrs by MTT assay; type: cell-based
[17] = Tmax in mouse at 25 mg/kg, po after 0.25 to 6 hrs; type: ADME, organism-based; conditions: in vivo
[18] = system: Hepatitis C virus; experiment: Antiviral activity against HCV J6/JFH/JC-1 infected in human Huh7.5 cells assessed as inhibition of viral core protein levels at 10 uM treated with fresh media containing compound every 2 days in presence of NS3/4A inhibitor simeprevir by Western blot method; type: functional, organism-based; conditions: Hepacivirus hominis
[19] = AUC (0 to t) in mouse at 25 mg/kg, po after 0.25 to 6 hrs; type: ADME, organism-based; set-up: time upper 6 hr, time lower 0.25 hr, dose 25 mg/kg, route oral; conditions: in vivo
[20] = system: Hepatitis C virus; experiment: Antiviral activity against HCV J6/JFH/JC-1 infected in human Huh7.5 cells assessed as inhibition of NS3/4A levels at 20 uM incubated for 2 to 24 hrs measured within 72 hrs by Western blot method; type: functional, organism-based; conditions: Hepacivirus hominis
[21] = system: Hepatitis C virus; experiment: Antiviral activity against HCV J6/JFH/JC-1 infected in human Huh7.5 cells assessed as inhibition of viral core protein levels at 20 uM preincubated for 2 hrs followed addition of Huh7.5 cells for 4 hrs measured within 72 hrs by Western blot method; type: functional, organism-based; conditions: Hepacivirus hominis
[22] = system: Hepatitis C virus; experiment: Antiviral activity against HCV J6/JFH/JC-1 infected in human Huh7.5 cells harboring NS3/4A D168V mutant assessed as inhibition of viral core protein levels at 20 uM treated with fresh media containing compound every 2 days by Western blot method; type: functional, organism-based; conditions: Hepacivirus hominis
[23] = system: Hepatitis C virus; experiment: Antiviral activity against HCV J6/JFH/JC-1 infected in human Huh7.5 cells assessed as inhibition of viral core protein levels at 10 uM treated with fresh media containing compound every 2 days in presence of NS5B inhibitor sofosbuvir by Western blot method; type: functional, organism-based; conditions: Hepacivirus hominis
[24] = system: Hepatitis C virus; experiment: Antiviral activity against 22.5 to 90 IU/cell of HCV J6/JFH/JC-1 infected in human Huh7.5 cells assessed as inhibition of NS3/4A levels at 20 uM treated with fresh media containing compound every 2 days by Western blot method; type: functional, organism-based; conditions: Hepacivirus hominis
[25] = system: Hepatitis C virus; experiment: Antiviral activity against HCV J6/JFH/JC-1 infected in human Huh7.5 cells assessed as inhibition of viral core protein levels at 20 uM incubated for 2 to 24 hrs measured within 72 hrs by Western blot method; type: functional, organism-based; conditions: Hepacivirus hominis
[26] = system: Hepatitis C virus; experiment: Antiviral activity against HCV J6/JFH/JC-1 infected in human Huh7.5 cells assessed as inhibition of NS3/4A levels at 10 uM treated with fresh media containing compound every 2 days in presence of NS5B inhibitor sofosbuvir by Western blot method; type: functional, organism-based; conditions: Hepacivirus hominis
[27] = Acute toxicity in po dosed Kunming mouse measured for 7 days; type: organism-based; conditions: in vivo
[28] = system: Hepatitis C virus; experiment: Antiviral activity against HCV J6/JFH/JC-1 infected in human Huh7.5 cells assessed as inhibition of NS3/4A D168V mutant levels at 20 uM treated with fresh media containing compound every 2 days by Western blot method; type: functional, organism-based; conditions: Hepacivirus hominis
[29] = system: Hepatitis C virus; experiment: Antiviral activity against HCV J6/JFH/JC-1 infected in human Huh7.5 cells assessed as inhibition of NS3/4A levels at 20 uM preincubated for 2 hrs followed addition of Huh7.5 cells for 4 hrs measured within 72 hrs by Western blot method; type: functional, organism-based; conditions: Hepacivirus hominis
[30] = Selectivity index, ratio of CC50 for human Huh7.5 cells to EC50 for HCV J6/JFH/JC-1; type: toxicity; conditions: read-out: Ratio CC50/EC50
[31] = system: Hepatitis C virus; experiment: Antiviral activity against HCV J6/JFH/JC-1 infected in human Huh7.5 cells assessed as inhibition of viral core protein levels at 0.5 uM by Western blot method; type: functional, organism-based; conditions: Hepacivirus hominis, TDE = time-dependent effect
[32] = system: Hepatitis C virus; experiment: Antiviral activity against HCV J6/JFH/JC-1 infected in human Huh7.5 cells assessed as inhibition of viral core protein levels at 10 uM treated with fresh media containing compound every 2 days in presence of NS5A inhibitor daclatasvir by Western blot method; type: functional, organism-based; conditions: Hepacivirus hominis
[33] = target: Hepatitis C virus serine protease, NS3/NS4A (Hepatitis C virus) (UniProt D2K2A8+A3EZI9); experiment: Inhibition of HCV NS3/4A protease at 200 uM; type: protein-complex assay; conditions: Hepacivirus hominis
[34] = system: Hepatitis C virus; experiment: Antiviral activity against HCV J6/JFH/JC-1 infected in human Huh7.5 cells assessed as inhibition of NS3/4A levels at 10 uM treated with fresh media containing compound every 2 days in presence of NS5A inhibitor daclatasvir by Western blot method; type: functional, organism-based; conditions: Hepacivirus hominis
[35] = system: Hepatitis C virus; experiment: Antiviral activity against HCV J6/JFH/JC-1 infected in human Huh7.5 cells harboring NS3/4A A156T mutant assessed as inhibition of viral core protein levels at 20 uM treated with fresh media containing compound every 2 days by Western blot method; type: functional, organism-based; conditions: Hepacivirus hominis
[36] = Half life in mouse at 25 mg/kg, po after 0.25 to 6 hrs; type: ADME, organism-based; conditions: in vivo

COC(=O)N[C@H](C(=O)N1CCC[C@H]1c1ncc(-c2ccc(-c3ccc(-c4cnc([C@@H]5CCCN5C(=O)[C@@H](NC(=O)OC)C(C)C)[nH]4)cc3)cc2)[nH]1)C(C)C
active: inhibition [1] | inhibition [2]

CN1CCN(S(=O)(=O)N2CCCC3=C[C@H]4C[C@H](CN5CCCC[C@H]45)[C@@H]32)CC1
> 140: selectivity ratio [30]
6.11 h: MRT [15]
active: inhibition [4] | inhibition [5] Dose-dependent effect | inhibition [6] | inhibition [7] | inhibition [8] Tde | inhibition [9] | inhibition [10] | inhibition [11] | inhibition [12] Dose-dependent effect | inhibition [14] | inhibition [18] | inhibition [20] | inhibition [21] | inhibition [22] | inhibition [23] | inhibition [24] | inhibition [25] | inhibition [26] | inhibition [28] | inhibition [29] | inhibition [31] Tde | inhibition [32] | inhibition [34] | inhibition [35]
9.47 h: half-life [36]
> 1000 mg/kg: LD50 at 168 h [27]
3.56 µM: EC50 [3]
> 500 µM: CC50 at 72 h [16]
1370 nM: Cmax [13]
7.6 µM·h: AUC(0-t) [19]
1 h: Tmax [17]
inactive: inhibition [33]
